Literature values as cited in patent publication US8426341B2, “Herbicide formulation” (priority 2005, dated 2013).

Settings: for pKas (single or first listed value): acid form / neutral form equilibrium, exemplary values; for pKas (second listed value): second value for compounds with more than one acidic hydrogen

Compound	pKas (single or first listed value)	pKas (second listed value)
O=C(O)CCCOc1ccc(Cl)cc1Cl [2,4-DB]	4.8	–
O=C(O)c1cc(Oc2ccc(C(F)(F)F)cc2Cl)ccc1[N+](=O)[O-] [Acifluorfen]	3.86	–
CC(C)N1C(=O)c2ccccc2NS1(=O)=O [Bentazon]	3.30	–
N#Cc1cc(Br)c(O)c(Br)c1 [Bromoxynil]	4.06	–
COc1c(Cl)ccc(Cl)c1C(=O)O [Dicamba, 3,6-dichloro-O-anisic acid]	1.87	–
CC(Oc1ccc(Oc2ccc(Cl)cc2Cl)cc1)C(=O)O (centres unmarked) [Diclofop]	3.57	–
C[C@@H](Oc1ccc(Oc2ccc(C(F)(F)F)cn2)cc1)C(=O)O [Fluazifop-p]	2.98	–
CP(=O)(O)CCC(N)C(=O)O (centres unmarked) [Glufosinate]	2	2.9
CC(Oc1ccc(Oc2ncc(C(F)(F)F)cc2Cl)cc1)C(=O)O (centres unmarked) [Haloxyfop]	2.9	–
CC(C)C1(C)N=C(c2nc3ccccc3cc2C(=O)O)NC1=O (centres unmarked) [Imazaquin]	3.8	–
Nc1c(Cl)c(Cl)nc(C(=O)O)c1Cl [Picloram]	2.3	–
O=C(O)c1c(Cl)ccc2cc(Cl)cnc12 [Quinclorac]	4.34	–
C[C@@H](Oc1ccc(Oc2cnc3cc(Cl)ccc3n2)cc1)C(=O)O [Quizalofop-p]	1.25	–
O=C(O)COc1nc(Cl)c(Cl)cc1Cl [Triclopyr, 3,5,6-trichloro-2-pyridyloxyacetic acid]	2.68	3.97
Imazamethbenz	2.9	–
